Results reported in article PMC4183650 (Journal of the American Chemical Society, 2014).

Assays:
VanA VRE = details: clinically resistant phenotypes (VanA and VanB); cited from earlier work
[1] = test system: panel of Gram-positive bacteria (VSSA, MRSA, VanA and VanB VRE); test: In vitro antimicrobial assay, panel summary in text; assay type: cell-based, S. aureus, E. faecalis, E. faecium
[2] = both D-Ala-D-Ala and D-Ala-D-Lac ligands; cited from earlier work

## Vancomycin [compound 1]
VanA VRE
  loss in antimicrobial activity in resistant phenotypes: 1000 fold

## [Ψ[C(=NH)NH]Tpg^4]vancomycin [compound 3]
[1]; VanA resistant bacteria
  MIC against VanA resistant bacteria: 0.5 µg/mL

## [Ψ[C(=NH)NH]Tpg^4]vancomycin aglycon [compound 9]
[2]
  binding affinity for both target ligands relative to vancomycin aglycon for D-Ala-D-Ala: ≤ 2 fold

## [Ψ[C(=S)NH]Tpg^4]vancomycin [compound 2]
[1]; whole panel: VSSA, MRSA, VanA and VanB VRE
  MIC against all vancomycin sensitive and resistant strains: > 32 µg/mL
